Key:
Assay type in all cases: cell-based
human TLR9 = molecular target: T1, human TLR9 (Homo sapiens, UniProt Q9NR96); experiment: TLR9 inhibition reporter assay (HEK-Blue SEAP); conditions: HEK-Blue cells overexpressing human TLR9, stimulated with ODN2006 5 nM, 22 h incubation
T1 construct: host or cells: HEK-Blue cells
T1 sequence (Q9NR96 26-1032): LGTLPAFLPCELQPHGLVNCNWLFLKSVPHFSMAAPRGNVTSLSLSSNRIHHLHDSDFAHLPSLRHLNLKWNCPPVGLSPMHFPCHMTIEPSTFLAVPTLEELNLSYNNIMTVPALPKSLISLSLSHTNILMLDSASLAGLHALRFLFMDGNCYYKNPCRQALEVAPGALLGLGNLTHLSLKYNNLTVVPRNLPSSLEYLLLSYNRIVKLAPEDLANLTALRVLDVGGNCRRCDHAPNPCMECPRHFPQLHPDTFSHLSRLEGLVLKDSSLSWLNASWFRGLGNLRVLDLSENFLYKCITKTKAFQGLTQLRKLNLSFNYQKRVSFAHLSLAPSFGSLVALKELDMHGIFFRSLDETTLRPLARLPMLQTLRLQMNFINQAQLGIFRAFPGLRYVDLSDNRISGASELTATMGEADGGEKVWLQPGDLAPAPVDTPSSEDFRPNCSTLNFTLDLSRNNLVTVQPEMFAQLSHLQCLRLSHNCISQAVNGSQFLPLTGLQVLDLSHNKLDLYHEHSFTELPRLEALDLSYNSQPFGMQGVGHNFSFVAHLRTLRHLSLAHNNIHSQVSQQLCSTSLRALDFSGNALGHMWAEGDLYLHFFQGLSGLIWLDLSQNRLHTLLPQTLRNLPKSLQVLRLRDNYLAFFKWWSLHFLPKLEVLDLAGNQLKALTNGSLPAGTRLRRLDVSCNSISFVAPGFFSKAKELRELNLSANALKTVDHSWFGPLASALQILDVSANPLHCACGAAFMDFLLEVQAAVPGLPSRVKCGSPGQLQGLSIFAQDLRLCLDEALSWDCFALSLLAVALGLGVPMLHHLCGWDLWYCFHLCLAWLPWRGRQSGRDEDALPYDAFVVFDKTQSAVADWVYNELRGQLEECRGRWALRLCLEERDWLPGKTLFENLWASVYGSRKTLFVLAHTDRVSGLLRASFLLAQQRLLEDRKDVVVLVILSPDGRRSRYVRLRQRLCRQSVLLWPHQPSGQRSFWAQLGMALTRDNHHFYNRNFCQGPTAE
Experimental: (§1) HEK-Blue™-cells (Invivogen) overexpressing human TLR7, TLR8 or TLR9 receptors were used for screening inhibitors of these receptors using an inducible SEAP (secreted embryonic alkaline phosphatase) reporter gene under the control of the IFN-β minimal promoter fused to five NF-κB and AP-1-binding sites. Briefly, cells are seeded into Greiner 384 well plates (15000 cells per well for TLR7, 20,000 for TLR8 and 25,000 for TLR9) and then treated with test compounds in DMSO to yield a final dose response concentration range of 0.05 nM - 50 µM. After a 30 minute compound pre-treatment at room temperature, the cells are then stimulated with a TLR7 ligand (gardiquimod at a final concentration of 7.5 µM), TLR8 ligand (R848 at a final concentration of 15.9 µM) or TLR9 ligand (ODN2006 at a final concentration of 5 nM) to activate NF-κB and AP-1 which induce the production of SEAP. After a 22 h incubation at 37°C, 5% CO2, SEAP levels are determined with the addition of HEK-Blue™ Detection reagent (Invivogen), a cell culture medium that allows for detection of SEAP, according to manufacturer's specifications. The percent inhibition is determined as the % reduction in the HEK-Blue signal present in wells treated with agonist plus DMSO alone compared to wells treated with a known inhibitor.

human TLR8 = molecular target: T2, human TLR8 (Homo sapiens, UniProt Q9NR97); experiment: TLR8 inhibition reporter assay (HEK-Blue SEAP); conditions: HEK-Blue cells overexpressing human TLR8, stimulated with R848 15.9 µM, 22 h incubation
T2 construct: host or cells: HEK-Blue cells
T2 sequence (Q9NR97 27-1041): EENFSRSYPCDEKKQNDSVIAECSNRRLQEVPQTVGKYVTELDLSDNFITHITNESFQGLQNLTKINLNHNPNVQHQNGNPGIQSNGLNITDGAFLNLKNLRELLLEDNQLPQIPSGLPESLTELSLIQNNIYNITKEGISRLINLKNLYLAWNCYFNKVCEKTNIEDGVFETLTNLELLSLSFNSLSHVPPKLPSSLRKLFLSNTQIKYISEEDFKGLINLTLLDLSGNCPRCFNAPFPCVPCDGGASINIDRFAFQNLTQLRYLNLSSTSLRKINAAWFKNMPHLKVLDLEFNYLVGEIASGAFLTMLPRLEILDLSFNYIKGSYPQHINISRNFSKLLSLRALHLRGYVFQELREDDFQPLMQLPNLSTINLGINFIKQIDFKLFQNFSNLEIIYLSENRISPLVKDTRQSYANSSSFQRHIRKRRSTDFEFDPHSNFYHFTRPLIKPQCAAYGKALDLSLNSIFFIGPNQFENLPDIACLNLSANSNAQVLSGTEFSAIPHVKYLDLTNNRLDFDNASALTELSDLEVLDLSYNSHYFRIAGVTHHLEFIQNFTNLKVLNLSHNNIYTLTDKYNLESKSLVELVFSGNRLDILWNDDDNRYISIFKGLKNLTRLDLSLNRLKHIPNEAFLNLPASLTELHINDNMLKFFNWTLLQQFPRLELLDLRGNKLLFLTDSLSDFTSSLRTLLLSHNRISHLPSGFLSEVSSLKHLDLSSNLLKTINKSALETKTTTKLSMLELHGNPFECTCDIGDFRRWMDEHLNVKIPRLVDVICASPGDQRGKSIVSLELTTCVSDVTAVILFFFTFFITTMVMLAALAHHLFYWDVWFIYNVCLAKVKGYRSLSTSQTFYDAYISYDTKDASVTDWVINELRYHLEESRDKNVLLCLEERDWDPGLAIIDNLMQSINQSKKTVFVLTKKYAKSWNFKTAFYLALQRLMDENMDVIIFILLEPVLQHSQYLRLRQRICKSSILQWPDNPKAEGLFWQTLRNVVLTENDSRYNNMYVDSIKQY
Experimental: as §1

human TLR7 = molecular target: T3, human TLR7 (Homo sapiens, UniProt Q9NYK1); experiment: TLR7 inhibition reporter assay (HEK-Blue SEAP); conditions: HEK-Blue cells overexpressing human TLR7, stimulated with gardiquimod 7.5 µM, 22 h incubation
T3 construct: host or cells: HEK-Blue cells
T3 sequence (Q9NYK1 27-1049): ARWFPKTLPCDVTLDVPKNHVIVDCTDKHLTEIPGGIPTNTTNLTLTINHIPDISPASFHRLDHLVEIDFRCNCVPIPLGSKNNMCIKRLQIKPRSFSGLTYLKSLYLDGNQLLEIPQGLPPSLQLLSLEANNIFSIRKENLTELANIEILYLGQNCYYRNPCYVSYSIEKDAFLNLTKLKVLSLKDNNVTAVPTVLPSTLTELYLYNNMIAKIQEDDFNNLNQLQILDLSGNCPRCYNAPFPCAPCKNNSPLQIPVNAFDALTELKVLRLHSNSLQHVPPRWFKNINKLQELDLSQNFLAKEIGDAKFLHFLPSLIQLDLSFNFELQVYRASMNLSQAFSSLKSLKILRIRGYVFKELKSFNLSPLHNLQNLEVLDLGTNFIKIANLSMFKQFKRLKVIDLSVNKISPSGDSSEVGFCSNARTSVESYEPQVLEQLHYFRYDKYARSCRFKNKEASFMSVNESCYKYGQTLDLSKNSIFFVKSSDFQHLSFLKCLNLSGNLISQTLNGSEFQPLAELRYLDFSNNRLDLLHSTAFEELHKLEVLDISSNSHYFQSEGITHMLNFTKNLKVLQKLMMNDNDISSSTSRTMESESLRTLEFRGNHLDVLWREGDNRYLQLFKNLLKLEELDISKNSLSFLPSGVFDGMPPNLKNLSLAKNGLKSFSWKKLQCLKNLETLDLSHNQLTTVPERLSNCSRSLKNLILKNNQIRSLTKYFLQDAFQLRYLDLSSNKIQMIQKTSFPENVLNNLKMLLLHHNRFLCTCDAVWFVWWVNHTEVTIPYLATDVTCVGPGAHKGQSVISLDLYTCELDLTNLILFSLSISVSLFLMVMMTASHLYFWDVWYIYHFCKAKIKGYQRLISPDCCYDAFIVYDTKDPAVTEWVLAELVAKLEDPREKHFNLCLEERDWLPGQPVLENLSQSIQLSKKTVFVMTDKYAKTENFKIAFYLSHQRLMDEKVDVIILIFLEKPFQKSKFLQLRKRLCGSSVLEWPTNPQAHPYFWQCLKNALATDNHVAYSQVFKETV
Experimental: as §1

| Structure (SMILES) | IC50 (human TLR9) [nM] | IC50 (human TLR8) [nM] | IC50 (human TLR7) [nM] |
| --- | --- | --- | --- |
| Cc1noc(C)c1-c1ccc2c(c1)[nH]c1ccc(C3CCNCC3)cc12 [Example 1, 3,5-dimethyl-4-(6-(piperidin-4-yl)-9H-carbazol-2-yl)isoxazole] | 1060 | 209 | 651 |
| Cc1cc(-c2ccc3c(c2)[nH]c2ccc(C4CCNCC4)cc23)cc(C)n1 [Example 2, 2-(2,6-Dimethylpyridin-4-yl)-6-(piperidin-4-yl)-9H-carbazole] | 53 | 103 | 22 |
| Cc1cc(-c2ccc3c(c2)[nH]c2ccc(C4CCNCC4)cc23)cn2ncnc12 [Example 3, 2-(8-methyl-[1,2,4]triazolo[1,5-a]pyridin-6-yl)-6-(piperidin-4-yl)-9H-carbazole] | 668 | 358 | 109 |
| c1cncc(-c2ccc3c(c2)[nH]c2ccc(C4CCNCC4)cc23)c1 [Example 4, 6-(piperidin-4-yl)-2-(pyridin-3-yl)-9H-carbazole] | 541 | 1800 | 1470 |
| Cc1c(-c2ccc3c(c2)[nH]c2ccc(C4CCNCC4)cc23)cn(C)c(=O)c1C [Example 5, 1,3,4-trimethyl-5-(6-(piperidin-4-yl)-9H-carbazol-2-yl)pyridin-2(1H)-one] | 182 | 29 | 16 |
| CN1CCC(c2ccc3c(c2)[nH]c2ccc(C4CCNCC4)cc23)CC1=O (centres unmarked) [Example 6, 1-methyl-4-(6-(piperidin-4-yl)-9H-carbazol-2-yl)piperidin-2-one] | 1050 | > 3130 | > 3130 |
| CC(=O)Nc1ccc2c(c1)[nH]c1ccc(C3CCNCC3)cc12 [Example 7, N-(6-(piperidin-4-yl)-9H-carbazol-2-yl)acetamide] | 1060 | > 3130 | > 3130 |
| Cn1cc(-c2ccc3c(c2)[nH]c2ccc(C4CCNCC4)cc23)cn1 [Example 8, 2-(1-methyl-1H-pyrazol-4-yl)-6-(piperidin-4-yl)-9H-carbazole] | 648 | 861 | 1380 |
| c1cc(-c2ccc3c(c2)[nH]c2ccc(C4CCNCC4)cc23)ccn1 [Example 9, 6-(Piperidin-4-yl)-2-(pyridin-4-yl)-9H-carbazole] | 302 | 61 | 383 |
| Cc1c(-c2cc(C)c3c(c2)[nH]c2ccc(C4CCNCC4)cc23)cn(C)c(=O)c1C [Example 10, 1,3,4-trimethyl-5-(4-methyl-6-(piperidin-4-yl)-9H-carbazol-2-yl)pyridin-2(1H)-one] | 350 | 2.4 | 2.2 |
| Cc1cc(-c2cc(C)c3c(c2)[nH]c2ccc(C4CCNCC4)cc23)cc(C)n1 [Example 11] | 40 | 21 | 2.4 |
| COc1cc(-c2cc(C)c3c(c2)[nH]c2ccc(C4CCNCC4)cc23)cn2ncnc12 [Example 12] | 153 | 6.8 | 1.4 |
| Cc1cc(-c2cc(C)c3ncnn3c2)cc2[nH]c3ccc(C4CCNCC4)cc3c12 [Example 13] | 349 | 6.8 | 0.7 |
| Cc1cc2c(cc1-c1cc(C)c3ncnn3c1)[nH]c1ccc(C3CCNCC3)cc12 [Example 14, 3-methyl-2-(8-methyl-[1,2,4]triazolo[1,5-a]pyridin-6-yl)-6-(piperidin-4-yl)-9H-carbazole] | 318 | 1.4 | 1.2 |
| COc1cc(-c2cc3[nH]c4ccc(C5CCNCC5)cc4c3c(C)c2C)cn2ncnc12 [Example 15, 2-(8-Methoxy-[1,2,4]triazolo[1,5-a]pyridin-6-yl)-3,4-dimethyl-6-(piperidin-4-yl)-9H-carbazole] | 95 | 0.8 | 0.8 |
| Cc1cc2c(cc1-c1cn(C)c(=O)c(C)c1C)[nH]c1ccc(C3CCNCC3)cc12 [Example 16] | 158 | 5.5 | 35 |
| COc1cc(-c2cc3[nH]c4ccc(C5CCNCC5)cc4c3cc2C)cn2ncnc12 [Example 17] | 108 | 1.4 | 1.9 |
| COc1cc(-c2cc3[nH]c4ccc(C5CN(C6CCOCC6)C5)cc4c3c(C)c2C)cn2ncnc12 [Example 37] | 1050 | 1.3 | – |
